Entries after “also recorded” stand apart in the source; their conditions may differ.
What was measured:
[1] = tested on: T2 cells and A24-LCL pulsed with candidate peptides; experiment: CTL induction with peptide-pulsed DCs and 4-h 51Cr-release cytotoxicity assay on peptide-pulsed target cells; type: cell-based; conditions: human PBMC-derived DCs pulsed with peptide, autologous CD8+ T cells
Description: Monocyte-derived dendritic cells (DCs) were used to induce CTL responses against peptides presented on HLA as previously described (Nukaya et al., (1999) Int. J. Cancer. 80: 92-7, Tsai et al., (1997) J. Immunol. 158: 1796-802, Nakahara et al., (2003) Cancer Res. 63: 4112-8). In brief, the PBMCs were obtained from the healthy volunteers with corresponding HLAs and cultured in the presence of GM-CSF (provided by Kirin Brewery Company, Japan) and IL-4 (Genzyme/Techne, Minneapolis). After culture for 5 days, OK-432 (Chugai Pharmaceutical Corporation, Japan) was added to the culture to obtain mature DCs (Nakahara et al., (2003) Cancer Res. 63: 4112-8). On day 7, generated mature DCs were pulsed with each peptide for T cell stimulation. Using these peptide-pulsed DCs each time, the autologous CD8+ T cells were stimulated for three times on day 0, 7 and 14, and then the resultant lymphoid cells were tested for their cytotoxic activities on day 21. To generate CTL clones, established CTL lines were plated in 96-well plates at 0.3, 1, and 3 cells per well with allogenic PBMCs and […] as stimulator cells. Cytotoxic activities of resulting CTL clones were tested on the 14th day. Cytotoxic activities were measured using a standard 4-h ^51Cr-release assay. The T2 cells and A24-LCL were used as target cells pulsed with candidate peptides. Percent specific lysis was calculated as follows: % Specific lysis=[(experimental release−spontaneous release)/(maximum release−spontaneous release)]×100. Immunogenicity of Epitope Peptides in A2/Kb TGM

[2] = tested on: IFN-γ production of CTLs against T2 cells pulsed with peptides; experiment: IFN-γ ELISPOT assay, immunogenicity of epitope peptides in A2/Kb TGM; type: in vivo, A2/Kb transgenic mice; conditions: IFA-conjugated peptide injected day 0 and day 11; splenocytes day 21; E/T ratio x20
Description: For priming the peptide-specific CTLs, immunization was given using 200 μl of vaccine mixture, which contains 100 μg of an HLA-A2 restricted peptide and 100 μl of IFA per mouse. The vaccine was injected intradermally in the right flank for the first immunization on day 0 and in the other flank for the second on day 11. On day 21, splenocytes of the vaccinated mice were used as the responder cells, and T2 cells pulsed with or without peptides were used as the stimulator cells for ELISPOT assay.
At first, we evaluated the immunogenicity of the epitope peptides for A2/Kb TGM to examine the specific production of IFN-γ of the CTLs induced with these peptides by ELISPOT assay (FIG. 4). IFA-conjugated peptide was injected s.c. into A2/Kb TGM on day 0 and day 11. On day 21, splenocytes of the vaccinated mice were harvested and used as the responder cells, and T2 cells pulsed with or without peptides were used as the stimulator cells for ELISPOT assay. […] In this ELISPOT assay using A2/Kb TGM system, positive results were shown for the epitope peptides identified using human PBMCs.

[3] = tested on: angiogenesis induced by MC38 cells; experiment: Dorsal air sac (DAS) in vivo angiogenesis assay; parameters: species or system A2/Kb transgenic mice; conditions: vaccinated twice with IFA-conjugated peptide, MC38 chamber, semiquantitative
Description: We examined the effects of peptide vaccination using dorsal air sac (DAS) assay which was designed to measure in vivo angiogenesis induced by tumor cells as previously described (Oikawa et al., (1997) Anticancer Res. 17: 1881-6). In brief, the A2/Kb TGM were vaccinated twice with 1-week interval in the left flank using IFA conjugated corresponding peptides as previously described with some modification (Schuler et al., (1997) J. Exp. Med. 186: 1183-7, Song et al., (1997) J. Exp. Med. 186: 1247-56, Specht et al., (1997) J. Exp. Med. 186: 1213-21). Millipore chamber (Millipore Corporation, Bedford, Mass.) was filled with PBS containing MC38 cells (1×10^6 cells) and implanted in the dorsum of anesthetized mice on day 0. The implanted chambers were removed from s.c. fascia on day 6 and then black rings were placed at the sites exposed to a direct contact with the chamber. The angiogenic response was assessed with photographs taken using a dissecting microscope. The extent of angiogenesis was determined with the number of newly formed blood vessels of >3 mm in length and scored semi quantitatively using an index ranging from 0 (none) to 5 (many).

MCA205 cells = experiment: In vivo anti-tumor effects, therapeutic model; parameters: species or system A2/Kb transgenic mice; conditions: MCA205 i.d. day 0; vaccination with IFA-conjugated peptide after tumor challenge
Description: We examined the anti-tumor effects of this vaccination with a therapeutic model. The 1×10^5 MCA205 cells or the 5×10^5 B16 cells were injected i.d. in the right flank on day 0, and vaccination was performed on day 4 and day 14 using IFA conjugated corresponding peptides. […] The MCA205, a methylcholanthrene-induced murine fibrosarcoma cell line were injected i.d. into A2/Kb TGM on day 0, and vaccination was performed on these mice on 4 and 14 days after the tumor challenge using VEGFR1-1087, -770, -417 peptides conjugated with IFA (FIG. 6).

Sequence | CTL inducibility [1] | Specific production of IFN-γ for the corresponding peptide [2] | Inhibition of tumor-induced angiogenesis (newly formed vessels) ([3]; listed as VEGFR1-417) | Inhibition of tumor-induced angiogenesis (newly formed vessels) ([3]; listed as VEGFR1-770) | Suppression of tumor growth (MCA205 cells) | Inhibition of tumor-induced angiogenesis (newly formed vessels) ([3]; listed as VEGFR1-1087)
NLTATLIVNV (synthetic vascular endothelial growth factor receptor 1 (VEGFR1, Flt-1) epitope peptide binding HLA-A*0201 with high cytotoxic T lymphocyte (CTL) inducibility) [SEQ ID NO: 13] | particularly high CTL inducibility | Specific production of IFN-γ for the corresponding peptide was observed | significant inhibition on angiogenesis was observed; also recorded: Significant inhibition of tumor-induced angiogenesis was observed | – | – | –
SYGVLLWEIF (synthetic vascular endothelial growth factor receptor 1 (VEGFR1, Flt-1) epitope peptide binding HLA-A*2402 with high cytotoxic T lymphocyte (CTL) inducibility) [SEQ ID NO: 32] | particularly high CTL inducibility | – | – | – | – | –
TLFWLLLTL (synthetic vascular endothelial growth factor receptor 1 (VEGFR1, Flt-1) epitope peptide binding HLA-A*0201 with high cytotoxic T lymphocyte (CTL) inducibility) [SEQ ID NO: 2] | particularly high CTL inducibility | Specific production of IFN-γ for the corresponding peptide was observed | – | significant inhibition on angiogenesis was observed; also recorded: Significant inhibition of tumor-induced angiogenesis was observed | Significant suppression of tumor growth was observed | –
VLLWEIFSL (synthetic vascular endothelial growth factor receptor 1 (VEGFR1, Flt-1) epitope peptide binding HLA-A*0201 with high cytotoxic T lymphocyte (CTL) inducibility) [SEQ ID NO: 1] | particularly high CTL inducibility | Specific production of IFN-γ for the corresponding peptide was observed | – | – | Significant suppression of tumor growth was observed | significant inhibition on angiogenesis was observed; also recorded: Significant inhibition of tumor-induced angiogenesis was observed

From US8663647B2, “Epitope peptides derived from vascular endothelial growth factor receptor 1 and vaccines containing these peptides” (Oncotherapy Science, Inc., priority 2005, dated 2014)
